SMILES strings stand for the structures.

In one assay the target is Chymotrypsinogen A (Bos taurus, UniProt P00766). The assay is described as follows: Inhibitory activity against alpha-chymotrypsin (alpha-CT).
In a further assay the target is Trypsin (Sus scrofa, UniProt P00761). Kind of assay: Inhibitory activity against porcine pancreatic trypsin (TRP).
A further assay addresses T1, Chymase (Homo sapiens, UniProt P23946).
T1 sequence (P23946 whole entry): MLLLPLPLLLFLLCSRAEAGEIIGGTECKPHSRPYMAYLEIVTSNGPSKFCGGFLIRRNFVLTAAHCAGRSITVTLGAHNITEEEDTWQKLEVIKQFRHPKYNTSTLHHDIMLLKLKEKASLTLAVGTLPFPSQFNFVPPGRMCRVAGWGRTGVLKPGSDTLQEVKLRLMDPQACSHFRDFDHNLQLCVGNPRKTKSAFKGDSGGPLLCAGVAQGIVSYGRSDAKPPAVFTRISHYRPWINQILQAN
The assay is described as follows: Inhibitory activity against human serine protease chymase.

The next assay addresses T2, Cathepsin G (Homo sapiens, UniProt P08311).
T2 sequence (P08311 whole entry): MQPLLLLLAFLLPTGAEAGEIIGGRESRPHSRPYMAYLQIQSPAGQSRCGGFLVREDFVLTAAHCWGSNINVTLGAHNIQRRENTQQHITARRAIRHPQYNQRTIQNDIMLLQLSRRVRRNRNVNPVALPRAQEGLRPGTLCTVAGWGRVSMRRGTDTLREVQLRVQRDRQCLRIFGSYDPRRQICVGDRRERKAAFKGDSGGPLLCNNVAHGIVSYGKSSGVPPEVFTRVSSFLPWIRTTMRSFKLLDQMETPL
The assay is described as follows: Inhibitory activity against human leukocyte cathepsin G.

Trypsin, sequence (P00761 whole entry): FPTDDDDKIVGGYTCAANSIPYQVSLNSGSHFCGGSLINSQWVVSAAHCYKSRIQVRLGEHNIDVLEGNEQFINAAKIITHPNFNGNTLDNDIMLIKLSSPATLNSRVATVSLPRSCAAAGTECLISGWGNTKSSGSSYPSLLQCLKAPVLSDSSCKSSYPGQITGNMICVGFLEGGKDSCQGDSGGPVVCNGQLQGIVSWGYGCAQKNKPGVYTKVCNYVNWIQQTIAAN

One may read the IC50 as the concentration at which inhibition is half-maximal. On to `Cc1cccc(CCC(=O)N[C@@H](Cc2ccccc2)C(=O)CCl)c1`, for which the concentration for half-maximal inhibition (IC50) against Chymotrypsinogen A turned out to be 11 µM; on Trypsin, 290 µM; at Chymase, 0.43 µM.
For `COc1ccc(CCC(=O)N[C@@H](Cc2ccccc2)C(=O)CCl)cc1`, the IC50 is 2.2 µM on Chymotrypsinogen A, 9.3 µM at Cathepsin G and over 1000 µM against Trypsin.
`CCc1ccc(CCC(=O)N[C@@H](Cc2ccccc2)C(=O)CCl)cc1`: the figures for the 50% inhibitory concentration (IC50) at Chymotrypsinogen A and on Trypsin were 37 µM and 120 µM, respectively.
As to `O=C(CCc1ccc(Cl)c(Cl)c1)N[C@@H](Cc1ccccc1)C(=O)CCl`, the IC50 against Chymotrypsinogen A amounted to 4.2 µM; against Trypsin, 28 µM; against Chymase, 3.7 µM.
Consider `O=C(CCc1cccc(C(F)(F)F)c1)N[C@@H](Cc1ccccc1)C(=O)CCl`, for which the half-maximal inhibitory concentration (IC50) at Chymotrypsinogen A was determined as 20 µM; on Trypsin, 34 µM.
Turning to `O=C(N[C@@H](Cc1ccccc1)C(=O)CCl)c1ccccc1`, the IC50 against Chymotrypsinogen A was determined as 9.3 µM; against Trypsin, 240 µM; on Chymase it was 1.3 µM.
The like results for `O=C(CCCCc1ccccc1)N[C@@H](Cc1ccccc1)C(=O)CCl` were, in that order, 18 µM, over 1000 µM and 1.2 µM.
Consider `O=C(N[C@@H](Cc1ccccc1)C(=O)CCl)OCc1ccccc1`, for which the 50% inhibitory concentration (IC50) against Chymotrypsinogen A came out at 17 µM; on Trypsin, 210 µM; against Chymase it was 0.4 µM.
`O=C(CCc1cccc(F)c1)N[C@@H](Cc1ccccc1)C(=O)CCl`: the 50% inhibitory concentration (IC50) on Chymotrypsinogen A was 44 µM; against Trypsin, over 1000 µM; at Chymase it was 1.2 µM.
In the case of `CC(C)c1ccc(CCC(=O)N[C@@H](Cc2ccccc2)C(=O)CCl)cc1`, the IC50 against Chymotrypsinogen A came out at 39 µM; on Trypsin, 4 µM.
For `O=C(CCc1cccc(Cl)c1)N[C@@H](Cc1ccccc1)C(=O)CCl`, the IC50 at Chymotrypsinogen A came out at 23 µM; against Trypsin, 44 µM; against Chymase, 0.89 µM.
Take `COc1cccc(CCC(=O)N[C@@H](Cc2ccccc2)C(=O)CCl)c1`: the results for the IC50 against Chymotrypsinogen A and against Trypsin were 85 µM and over 1000 µM, respectively.
Consider `O=C(CCc1cccc(O)c1)N[C@@H](Cc1ccccc1)C(=O)CCl`, for which the IC50 came out at 5.2 µM at Chymotrypsinogen A, 75 µM against Trypsin and 1.8 µM on Chymase.
Consider `O=C(CCc1ccc(Cl)cc1)N[C@@H](Cc1ccccc1)C(=O)CCl`, for which the IC50 at Chymotrypsinogen A is 18 µM; on Trypsin, over 1000 µM; on Chymase, 1.9 µM.
As for `O=C(CCc1ccc(C(F)(F)F)cc1)N[C@@H](Cc1ccccc1)C(=O)CCl`, the values for the IC50 against Chymotrypsinogen A and against Trypsin were 17 µM and 30 µM, respectively.
Turning to `O=C(CCc1ccc(F)cc1)N[C@@H](Cc1ccccc1)C(=O)CCl`, the IC50 is 100 µM against Chymotrypsinogen A, over 1000 µM on Trypsin and 2.4 µM at Chymase.
Turning to `O=C(CCCc1ccccc1)N[C@@H](Cc1ccccc1)C(=O)CCl`, the 50% inhibitory concentration (IC50) against Chymotrypsinogen A was found to be 26 µM; against Trypsin, 690 µM; against Chymase, 2.5 µM.
Take `COc1ccc(CCC(=O)N[C@@H](Cc2ccccc2)C(=O)CCl)cc1OC`: the results for the IC50 at Chymotrypsinogen A and against Trypsin were 51 µM and over 1000 µM, respectively.
Take `Cc1ccccc1CCC(=O)N[C@@H](Cc1ccccc1)C(=O)CCl`: the IC50 came out at 12 µM at Chymotrypsinogen A, 600 µM against Trypsin and 0.78 µM against Chymase.
Take `Cc1ccc(CCC(=O)N[C@@H](Cc2ccccc2)C(=O)CCl)cc1`: the concentration for half-maximal inhibition (IC50) against Chymotrypsinogen A turned out to be 97 µM; against Trypsin it was 260 µM; at Chymase, 0.3 µM.
In the case of `O=C(CCc1ccc(O)cc1)N[C@@H](Cc1ccccc1)C(=O)CCl`, the results for the IC50 against Chymotrypsinogen A, against Trypsin and at Chymase were 14 µM, over 1000 µM and 2.7 µM, respectively.
Regarding `COc1cccc(CCC(=O)N[C@@H](Cc2ccccc2)C(=O)CCl)c1OC`, the half-maximal inhibitory concentration (IC50) against Chymotrypsinogen A is 2.2 µM; against Trypsin it was over 1000 µM.
Regarding `COc1ccccc1CCC(=O)N[C@@H](Cc1ccccc1)C(=O)CCl`, the IC50 amounted to 2.7 µM against Chymotrypsinogen A and 34 µM on Trypsin.
Take `O=C(CCc1ccccc1F)N[C@@H](Cc1ccccc1)C(=O)CCl`: the IC50 against Chymotrypsinogen A was 34 µM; on Chymase, 0.36 µM.
Turning to `O=C(CCc1cccc(Cl)c1Cl)N[C@@H](Cc1ccccc1)C(=O)CCl`, the IC50 is 10 µM on Chymotrypsinogen A, 97 µM on Trypsin and 0.4 µM against Chymase.
Regarding `O=C(Cc1ccccc1)N[C@@H](Cc1ccccc1)C(=O)CCl`, the results for the IC50 against Chymotrypsinogen A, against Trypsin and at Chymase were 20 µM, over 1000 µM and 4.7 µM, respectively.
Regarding `O=C(CCc1ccccc1Cl)N[C@@H](Cc1ccccc1)C(=O)CCl`, the IC50 at Chymotrypsinogen A was found to be 97 µM; on Trypsin, 85 µM; on Chymase, 0.6 µM.
Consider `O=C(/C=C/c1ccccc1)N[C@@H](Cc1ccccc1)C(=O)CCl`, for which the IC50 came out at 8.7 µM on Chymotrypsinogen A, 210 µM against Trypsin and 15 µM against Chymase.
Regarding `O=C(CCc1ccccc1)N[C@@H](Cc1ccccc1)C(=O)CCl`, the IC50 against Chymotrypsinogen A was 37 µM; against Trypsin it was over 1000 µM.
In the case of `Cc1ccc(S(=O)(=O)N[C@@H](Cc2ccccc2)C(=O)CCl)cc1` [TPCK], the concentration for half-maximal inhibition (IC50) at Chymotrypsinogen A turned out to be 140 µM; against Cathepsin G it was 110 µM; against Trypsin, 200 µM; at Chymase, 3.3 µM.

The values are drawn from ChEMBL document CHEMBL1133367, “Structure-activity relationship studies of chloromethyl ketone derivatives for selective human chymase inhibitors” (Bioorg Med Chem Lett, 2000).
